Like-named read-outs stand apart in the source and are kept apart here.
Assays:
[1] = test system: HRV-14; test: Antirhinoviral HI-HeLa Cell Culture Assay (Cell Protection Assay, XTT dye reduction); assay type: cell-based, human rhinovirus (HRV) serotype-14
Summary of the method: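 HI-HeLa cells infected with HRV-14 at m.o.i. 0.13 or mock-infected, then incubated with compounds for two days. Cell protection read by XTT/PMS formazan at 450/650 nm; therapeutic index = CC50/EC50.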

[2] = test system: HI-HeLa cells; test: Cytotoxicity in mock-infected HI-HeLa cells (antirhinoviral assay, XTT); assay type: cell-based
[3] = test system: HI-HeLa cells; test: Cytotoxicity in mock-infected HI-HeLa cells (anticoxsackieviral assay, XTT); assay type: cell-based
Protocol: (§1) The ability of compounds to protect calls against CVB-3 infection was measured by the XTT dye reduction method, which is described in Weislow, O. S., R. Kiser, D. L. Fine, J. Bader, R. H. Shoemaker, and M. R. Boyd, 1989, J. Natl. Cancer Inst. 81:577-586, which is incorporated herein by reference. Specifically, HI-HeLa cells were infected wtih […] at a multiplicity of infection (m.o.i.) of 0.08 or mock-infected with medium only. Infected or mock-infected cells were resuspended at 8×10^5 cells per mL and incubated with appropriate concentrations of compound. One day later, XTT/PMS were added to test plates and the amount of formazan produced was quantified spectrophotometrically at 450/650 nm. […] The therapeutic index (TI) was calculated by dividing the CC50 by the EC50.
(§2) The Coxsackie strain B-3 (CVB-3) was purchased from American Type Culture Collection (ATCC). Virus stocks were propgated and antiviral assays were performed in Hi-HeLa cells (ATCC). Cells were grown in Minimal Essential Medium with 10% fetal bovine serum.

[4] = test system: CVB-3; test: Anticoxsackieviral HI-HeLa Cell Culture Assay (XTT dye reduction); assay type: cell-based, Coxsackie strain B-3 (CVB-3); conditions: HI-HeLa cells infected with CVB-3, m.o.i. 0.08, one day
Protocol: Specifically, HI-HeLa cells were infected wtih […] at a multiplicity of infection (m.o.i.) of 0.08 or mock-infected with medium only. Infected or mock-infected cells were resuspended at 8×10^5 cells per mL and incubated with appropriate concentrations of compound. One day later, XTT/PMS were added to test plates and the amount of formazan produced was quantified spectrophotometrically at 450/650 nm. […] The therapeutic index (TI) was calculated by dividing the CC50 by the EC50.
as §2

[5] = molecular target: T1, Recombinant Rhinovirus 3C protease (RVP) serotype-14 (Human rhinovirus 14, UniProt P03303); test: Inhibition of Rhinovirus Protease (fluorescence resonance energy transfer assay), serotype 14; assay type: biochemical, human rhinovirus (HRV); conditions: for kobs/I: progress curves in enzyme start experiments; for kinact/KI: pH 7.6, read-out: kobs/I
T1 construct: Recombinant Rhinovirus 3C proteases from serotypes 14, 16, 2 or 89; made in house
T1 sequence (P03303 1538-1719): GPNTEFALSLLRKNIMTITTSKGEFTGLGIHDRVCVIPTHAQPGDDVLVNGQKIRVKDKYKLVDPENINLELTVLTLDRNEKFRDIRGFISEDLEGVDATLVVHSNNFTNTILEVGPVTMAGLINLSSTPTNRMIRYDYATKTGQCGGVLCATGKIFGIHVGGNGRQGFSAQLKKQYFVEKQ

[6] = Cytotoxicity in mock-infected HI-HeLa cells (antirhinoviral assay, XTT); assay type: cell-based; conditions: human; mock-infected HI-HeLa cells; two days; XTT; read-out: CC50
[7] = test system: Human Rhinovirus-serotype 10 (HRV-10); test: Normal Human Bronchial Epithelial Cell Assay (MTT); assay type: cell-based; conditions: normal human bronchial cells, HRV-10 at m.o.i. 10, 3-4 days at 34° C., read-out: ED50 (the source's name)
Protocol: Normal human bronchial cells were obtained from cadavers and cultured. The cells were plated at 2×10^4 per well in a […] plate. They were allowed to adhere and grow for 24 hours in 200 μL of serum-free bronchial/tracheal epithelial cell growth medium at 37° C. with 5% CO2. Human Rhinovirus-serotype 10 (HRV-10) was purchased from American Type Culture Collection (ATCC). To start the assay, the supernatant was removed, and HRV-10 at an m.o.i. of 10 (virus particles/cell) was added to each well along with the appropriate amount of compound of formula I or II. The plate was then incubated at 34° C. After 3 hours the supernatant was removed, and 200 μL of media was added along with the same concentration of compound as used in the beginning of the assay. The plates were incubated for 3-4 days at 34° C. To determine the amount of cell growth, an MTT assay (0.5 mgs/mL), as described in Mosmann, T. J. J. Immunol. Methods 1983, 65, 55-63, which is incorporated herein by reference, was performed on the cells, and the plate was read at an optical density of 540 nm. The compounds were tested against control compound Pirodavir, obtained from Janssen Pharmaceuticals. The EC50 was measured as described above for the HI-HeLa Cell Culture Assay.

[8] = molecular target: T2, Recombinant Rhinovirus 3C protease (RVP) serotype 16 (Human rhinovirus 16, UniProt Q82122); test: Inhibition of Rhinovirus Protease (fluorescence resonance energy transfer assay), serotype 16; assay type: biochemical, human rhinovirus (HRV); conditions: pH 7.6; RVP serotype 16; progress curves in enzyme start experiments; read-out: kobs/I
T2 construct: Recombinant Rhinovirus 3C proteases from serotypes 14, 16, 2 or 89; made in house
T2 sequence (Q82122 1511-1693): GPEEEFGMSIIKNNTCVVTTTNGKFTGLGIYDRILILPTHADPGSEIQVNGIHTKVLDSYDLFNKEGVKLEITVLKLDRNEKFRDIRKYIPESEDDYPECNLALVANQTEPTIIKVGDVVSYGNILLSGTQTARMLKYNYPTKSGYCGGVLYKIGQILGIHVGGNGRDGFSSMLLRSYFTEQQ
Protocol: (§3) Stock solution (50 mM, in DMSO) of various compounds were prepared; dilutions were in the same solvent. Recombinant Rhinovirus 3C proteases from serotypes 14, 16, 2 or 89 were prepared by the following standard chromatographic procedures: (1) ion exchange using Q Sepharose Fast Flow from Pharmacia; (2) affinity chromatography using Affi-Gel Blue from Biorad; and (3) sizing using Sephadex G-100 from Pharmacia. Assays contained 2% DMSO, 50 mM tris pH 7.6, 1 mM EDTA, a compound at the indicated concentrations, approximately 1 μM substrate, and 50-100 nM protease. […] The kobs/I values were obtained from reactions initiated by addition of enzyme rather than substrate. RVP activity is measured in the fluorescence resonance energy transfer assay. The substrate was (N-terminal) DABCYL-([…]Gyl)-EDANS. In the uncleaved peptide, the EDANS fluorescence was quenched by the proximal DABCYL moeity. When the peptide was cleaved, the quenching was relieved, and activity was measured as an increase in fluorescence signal.
(§4) In the above table, all data is RVP serotype-14 unless otherwise noted in parentheses. All strains of human rhinovirus (HRV) were purchased from American Type Culture Collection (ATCC), except for serotype 14, which was produced from the infectious cDNA clone constructed and supplied to us by Dr. Roland Rueckert at the Institute for Molecular Virology, University of Wisconsin, Madison, Wisc. […] The data in the column designated kobs/I was measured from progress curves in enzyme start experiments.

[9] = molecular target: T3, Recombinant Rhinovirus 3C protease (RVP) serotype 2 (Human rhinovirus 2, UniProt P04936); test: Inhibition of Rhinovirus Protease (fluorescence resonance energy transfer assay), serotype 2; assay type: biochemical, human rhinovirus (HRV); conditions: pH 7.6, progress curves in enzyme start experiments, read-out: kobs/I
T3 construct: Recombinant Rhinovirus 3C proteases from serotypes 14, 16, 2 or 89; made in house
T3 sequence (P04936 1508-1690): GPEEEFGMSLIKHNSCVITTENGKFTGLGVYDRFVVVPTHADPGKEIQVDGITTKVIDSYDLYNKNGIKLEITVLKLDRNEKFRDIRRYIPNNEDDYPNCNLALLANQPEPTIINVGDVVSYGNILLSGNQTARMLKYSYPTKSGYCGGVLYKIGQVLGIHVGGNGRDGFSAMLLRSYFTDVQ
Protocol: as §3, §4

[10] = Cytotoxicity in mock-infected HI-HeLa cells (anticoxsackieviral assay, XTT); assay type: cell-based; conditions: human; mock-infected HI-HeLa cells; one day; XTT
Protocol: as §1, §2

[11] = HI-HeLa cells infected with HRV-14, m.o.i. 0.13, two days, XTT, read-out: EC50
[12] = mock-infected HI-HeLa cells, two days, XTT, read-out: CC50
[13] = mock-infected HI-HeLa cells, one day, XTT, read-out: CC50
[14] = Rhinovirus B, HRV14, 48 h, HI-HeLa cells infected with HRV-14, m.o.i. 0.13, two days, XTT, read-out: EC50
[15] = RVP serotype-14, 10 minute preincubation, substrate start, read-out: INHIB (Ki)

Compound | EC50 [1, 11] [µM] | EC50 [4] [µM] | kobs/I ([5]; RVP serotype-14) | EC50 [1, 14] [µM] | CC50 at 2 days [6] [µM] | Ki [5] [µM] | kinact/KI [5] [M⁻¹ s⁻¹] | kinact/KI [8] [M⁻¹ s⁻¹] | kinact/KI [9] [M⁻¹ s⁻¹] | further results
CC(C)C[C@H](NC(=O)OCc1ccccc1)C(=O)N[C@@H](Cc1ccccc1)C(=O)N[C@H](/C=C/C(=O)c1ccccc1)CCC(N)=O [Compound 24, 1-Phenyl-3-(CBZ-L-Leu-L-Phe-L-Gln)-E-Propenone] | 4 | 10 | 500,000 M-1 sec-1 |  |  |  |  |  |  | CC50 [2, 12]: 16 µM; CC50 [3, 13]: 10 µM
CCOC(=O)/C=C/[C@H](CC[S+](C)[O-])NC(=O)[C@H](Cc1ccccc1)NC(=O)[C@H](CC(C)C)NC(=O)OCc1ccccc1 (stereo partly drawn) [Compound 12, Ethyl-3-[CBZ-L-Leu-L-Phe-L-Met(sulfoxide)]-E-propenoate] |  |  |  | 1.6 | > 100 | 4.3 | 2200 |  |  | EC50 ([7]; Epithelial cell): 0.004 µM
COC(=O)/C=C/[C@H](CCC(N)=O)NC(=O)[C@H](Cc1ccccc1)NC(=O)[C@H](CC(C)C)NC(=O)OCc1ccccc1 [Compound 11, Methyl-3-(CBZ-L-Leu-L-Phe-L-Gln)-E-Propenoate] | 1.3 | 8.9 | 20,000 M-1 sec-1 |  |  |  |  |  |  | CC50 [2]: > 320 µM; CC50 [3, 13]: > 320 µM; EC50 [7]: 0.0007 µM; Ki [5, 15]: 28 µM
CC(C)C[C@H](NC(=O)OCc1ccccc1)C(=O)N[C@@H](Cc1ccccc1)C(=O)N[C@H](/C=C/c1ccccn1)CCC(N)=O [Compound 23] | > 100 | > 100 | 120 M⁻¹ s⁻¹ |  |  |  |  |  |  | CC50 [2, 12]: > 100 µM; CC50 [3, 13]: > 100 µM; Ki [5, 15]: 177 µM
CCOC(=O)C=CC(CCC(N)=O)NC(=O)C(Cc1ccc(C)cc1)NC(=O)C(CC(C)C)NC(=O)OCc1ccccc1 (stereo not shown) [Compound 155] |  |  |  |  | > 320 |  | 59400 | 5250 | 1390 | EC50 ([1]; Rhinovirus B, HRV14, 48 h): 0.18 µM
CCOC(=O)C=CC(CCC(N)=O)NC(=O)C(Cc1ccccc1)NC(=O)C(CCc1ccccc1)NC(=O)OCc1ccccc1 (stereo not shown) [Compound 148] |  |  |  | 0.25 | > 320 |  | 57000 | 14800 | 8300 | 
Ethyl-3-[CBZ-L-Leu-L-Phe-L-[N-(2-pyrrolidinone)]-Ala]-E-Propenoate [Compound 5] | 1.6 |  | 221 M⁻¹ s⁻¹ |  |  |  |  |  |  | CC50 [2]: 251 µM; EC50 [7]: 0.001 µM; Ki [5, 15]: 7.1 µM
CC(C)C[C@H](NC(=O)OCc1ccccc1)C(=O)N[C@@H](Cc1ccccc1)C(=O)N[C@H](/C=C/C(=O)N1CC=CC1)CCC(N)=O [Compound 41] | 56 | > 100 | 8,464 M-1 sec-1 |  |  |  |  |  |  | CC50 [2]: 56 µM; CC50 [3]: > 100 µM
CCOC(=O)/C=C/[C@H](CCC(N)=O)NC(=O)[C@H](Cc1ccccc1)NC(=O)[C@H](CC(=O)O)NC(=O)OCc1ccccc1 [Compound 159] |  |  |  | 2.4 | > 320 | 0.5 | 35000 | 6500 | 2500 | 
Cc1cc(CCCCCOc2c(Cl)cc(C3=NCCO3)cc2Cl)on1 [WIN 54954, reference compound] | 2.13 | > 100 |  |  |  |  |  |  |  | CC50 [2, 12]: > 63 µM; CC50 [3, 13]: > 100 µM
CCOC(=O)/C=C/[C@H](CCC(N)=O)NC(=O)[C@H](Cc1ccccc1)NC(=O)[C@H](CC(C)C)NC(=O)SCC [Compound 120] |  |  |  | 0.46 | > 320 | 6 | 91300 | 20000 | 8900 | 
CCOC(=O)/C=C/[C@H](CCC(N)=O)NC(=O)[C@H](Cc1ccc(F)cc1)NC(=O)c1cc2c(OC)cccc2[nH]1 [Compound 27] | 3.5 | 20 | 3,000 M-1 sec-1 |  |  |  |  |  |  | CC50 [2, 12]: 160 µM; CC50 [3, 13]: 103 µM; EC50 [7]: 0.07 µM; Ki [5, 15]: 20 µM
CC(C)C[C@H](NC(=O)OCc1ccccc1)C(=O)N[C@@H](Cc1ccccc1)C(=O)N[C@H](/C=C/C(=O)N1CCCC1)CCC(N)=O [Compound 21, 1-Pyrrolidin-1-yl-3-(CBZ-L-Leu-L-Phe-L-Gln)-E-Propenone] |  |  |  | 22.4 | > 100 | 9.9 | 2100 |  |  | CC50 at 1 day [10]: > 320 µM; EC50 ([4]; 24 h): 158 µM
CCOC(=O)/C=C/[C@H](CCC(N)=O)NC(=O)[C@H](Cc1ccccc1)NC(=O)[C@H](CC(C)C)NC(=O)SCc1ccccc1 [Compound 106] |  |  |  | 0.27 | > 320 | 2 | 280000 | 75000 | 28400 | 
CCOC(=O)/C=C/[C@H](CCC(N)=O)NC(=O)[C@H](Cc1ccccc1)NC(=O)[C@H](CCC(=O)O)NC(=O)OCc1ccccc1 [Compound 154] |  |  |  | 5.5 | > 320 | 1.1 | 78900 | 13900 | 5400 | 
CC(C)C[C@H](NC(=O)OCc1ccccc1)C(=O)N[C@@H](Cc1ccccc1)C(=O)N[C@H](/C=C/C(=O)N1CCc2ccccc21)CCC(N)=O [Compound 85] |  |  |  | 16 | > 320 | 3 | 6500 |  |  | EC50 ([7]; Epithelial cell): 0.005 µM
CCOC(=O)/C=C/[C@H](CNC(C)=O)NC(=O)[C@H](Cc1ccccc1)NC(=O)[C@H](CC(C)C)NC(=O)OCc1ccccc1 [Compound 4, Ethyl-3-[CBZ-L-Leu-L-Phe-L-(N-Ac-amino)-Ala]-E-Propenoate] | 2.2 |  | 790 M⁻¹ s⁻¹ |  |  |  |  |  |  | CC50 [2]: > 320 µM; EC50 [7]: 0.15 µM; INHIB (percent inhibition) ([5]; RVP serotype-14, 0.5 μM compound, 10 minute preincubation with 50 nM RVP): 49(0.5) percent

— patent publication US6362166B1, “Antipicornaviral compounds and methods for their use and preparation” (Agouron Pharmaceuticals, Inc., priority 1996, dated 2002)
